Results published in patent publication US9975852B2, “Quinoline sulfonyl derivatives and uses thereof” (Health Sciences North Research Institute, priority 2013, dated 2018).

What was measured:
U87MG = test: SRB antiproliferative assay, U87MG; assay type: cell-based; conditions: Homo sapiens, U-87 MG
Protocol: Antiproliferative effects were determined by a sulforhodamine B (SRB) based protocol. For a typical screening experiment, 5,000-10,000 cells were inoculated into 100 μl medium per well of a 96-well microtiter plate as described previously. Briefly, after the inoculation, the microtiter plate was incubated at 37° C., 5% CO2, 95% air and 100% relative humidity for 24 h, prior to addition of experimental drugs. Some of the sample wells were fixed with 25 μl of 50% trichloroacetic acid (TCA) as a control of the cell population for each cell line at the time of drug addition (Tz). An aliquot of the frozen stock was thawed and diluted to the desired final maximum test-concentration with complete medium. […] The cells “stained” with SRB were solubilized with 10 mM trizma base, and the absorbance was read on an automated plate reader at a wavelength of 515-564 nm. The relative growth rate (%) was calculated for each of the compound concentrations according to the following formula: (Ti−Tz)/(C−Tz)×100 In the formula, time zero (Tz), control growth (C), and OD for different concentration of tested compounds (Ti). […] Values were calculated for each of these parameters if the level of activity was reached. However, if the effect was not reached or was exceeded, the value for that parameter was expressed as greater or less than the maximum or minimum concentration tested. […]

[1] = target: T1, Trypsin-like proteasome activity in HeLa S3 cell lysates (Homo sapiens, UniProt Q99436); test: Proteasome activity assay, trypsin-like; assay type: biochemical; conditions: read-out: Inhibition (IC50) Trypsin-like
T1 construct: proteasomes were extracted in 0.5% NP40 buffer; endogenous in cells; host or cells: HeLa S3
Protocol: (§1) Exponentially growing HeLa S3 cells were plated on 96-well plates. After overnight incubation, the cells were treated with different concentrations of drugs for 6 hours or left untreated (control). At the end of 6 hours, proteasomes were extracted in 0.5% NP40 buffer, and equal amounts of samples were incubated with 25 μM of fluorogenic substrates purchased from Boston Biochem (Cambridge Mass.). (LRR-specific for trypsin-like activity, LLE-specific for caspase-like activity and SUVY-specific for chymotrypsin like activity) in black-bottom 96-well plates at 37° C. Fluorescence was monitored every 5 min at the wavelength of 360 nm (excitation) and 480 nm (emission). Chymotrypsin activity was also determined by a kit-based method (similar to described above) purchased from Caymen Biochem (Ann Arbor, Mich.), using a fluorogenic substrate specific for chymotrypsin activity.
(§2) Analysis of proteasome activity in HeLa S3 cell lysates treated with various compounds (FIG. 10). VR-23 inhibits proteasome activity. 20S proteasome activity was inhibited by 1 μM VR-23. MG132 and EGCG, known proteasome inhibitors, were used as positive controls. The PC positive control is cell lysates prepared from Jurkat cells with a high proteasome activity. “Asynchr” denote asynchronous HeLa S3 cells grown in the absence of VR-23.

MCF7 = test: SRB antiproliferative assay, MCF7; assay type: cell-based, human; conditions: Homo sapiens
Protocol: Antiproliferative effects were determined by a sulforhodamine B (SRB) based protocol. For a typical screening experiment, 5,000-10,000 cells were inoculated into 100 μl medium per well of a 96-well microtiter plate as described previously. […] Some of the sample wells were fixed with 25 μl of 50% trichloroacetic acid (TCA) as a control of the cell population for each cell line at the time of drug addition (Tz). An aliquot of the frozen stock was thawed and diluted to the desired final maximum test-concentration with complete medium. Two to ten-fold serial dilutions were made to provide a total of seven drug concentrations (and a control [C]). Following addition of drugs, the culture plate was incubated for additional 48 h. Cells were fixed in situ by slowly adding 25 μl of ice-cold 50% (w/v) TCA (final concentration, 10% TCA), and were then incubated for 60 min at 4° C. The supernatant was discarded, and the plate was washed five times with tap water, followed by air-dry. 50 μl of SRB solution at 0.4% (w/v) in 1% acetic acid was added to each well, and the plate was incubated for >30 min at room temperature. Unbound SRB was removed by five washes with tap water, followed by air-drying. […] The relative growth rate (%) was calculated for each of the compound concentrations according to the following formula: (Ti−Tz)/(C−Tz)×100 In the formula, time zero (Tz), control growth (C), and OD for different concentration of tested compounds (Ti). The GI50 for each compound was obtained from a non-linear Sigmoidal dose-response (variable slope) curve which is fitted by GraphPad Prism™ v.4.03 software. Values were calculated for each of these parameters if the level of activity was reached. However, if the effect was not reached or was exceeded, the value for that parameter was expressed as greater or less than the maximum or minimum concentration tested. Flow Cytometry

[2] = target: T2, Chymotrypsin-like proteasome activity in HeLa S3 cell lysates (Homo sapiens, UniProt P28074); test: Proteasome activity assay, chymotrypsin-like; assay type: biochemical; conditions: read-out: Inhibition (IC50) Chymotrypsin-like
T2 construct: proteasomes were extracted in 0.5% NP40 buffer; endogenous in cells; host or cells: HeLa S3
Protocol: as §1, §2

Structure (SMILES): O=[N+]([O-])c1ccc(S(=O)(=O)N2CCN(c3ccnc4cc(Cl)ccc34)CC2)c([N+](=O)[O-])c1 [Compound 1, 7-Chloro-4-(4-(2,4-dinitrophenylsulfonyl)piperazin-1-yl)quinoline]
- IC50 (U87MG): 800 ± 100 nM
- IC50 [1]: 1 nM
- GI50 (MCF7; MCF7, 48 h, read-out: GI50 MCF7): 2320 ± 800 nM
- IC50 (MCF7; MCF7, SRB): 2300 ± 800 nM
- IC50 [2]: 100 nM
